Assay [1] has as its target human mu-opioid peptide (hMOP) receptor (Homo sapiens (Human), UniProt P35372). The assay is described as follows: hMOP receptor binding assay (SPA). The settings on record: for Ki: displacement of [3H]naloxone, hMOP receptor membranes; for Ki / inhibition at 1 µM: read-out: hMOP Ki [nM] or % inhibition at 1 μM. On the procedure:
Human Mu-Opioidpeptide (hMOP) Receptor Binding Assay
The hMOP receptor binding assay was performed as homogeneous SPA-assay (scintillation proximity assay) using the assay buffer 50 mM TRIS-HCl (pH 7.4) supplemented with 0.052 mg/ml bovine serum albumin (Sigma-Aldrich Co. St. Louis, Mo.). […] The assay was started by adding wheat germ agglutinin coated SPA beads (GE Healthcare UK Ltd. Buckinghamshire. UK) which had been preloaded with hMOP receptor membranes (PerkinElmer Life Sciences. Inc. Boston, Mass. USA).
(In general: In a radioligand displacement assay an active substance lowers the binding of a labelled ligand.)

Assay [2] concerns the target human nociceptin/orphanin FQ peptide (hNOP) receptor (Homo sapiens (Human), UniProt P41146). The assay can be described thus: hNOP receptor binding assay (SPA). To be noted: for Ki: displacement of [leucyl-3H]nociceptin, hNOP receptor membranes, read-out: hNOP Ki [nM] or % inhibition at 1 μM. On the procedure:
Human Nociceptin/Orphanin FQ Peptide (hNOP) Receptor Binding Assay
The hNOP receptor binding assay was performed as homogeneous SPA-assay (scintillation proximity assay) using the assay buffer 50 mM TRIS-HCl, 10 mM MgCl2, 1 mM EDTA (pH 7.4). The final assay volume (250 μl/well) included 0.5 nM of [leucyl-^3H]nociceptin as ligand (PerkinElmer Life Sciences. Inc. Boston, Mass. USA) and either test compound in dilution series or 1 μM unlabelled nociceptin for determination of unspecific binding. The test compound was diluted with 25% DMSO in H2O to yield a final 0.5% DMSO concentration which also served as a respective vehicle control. The assay was started by adding wheat germ agglutinin coated SPA beads (GE Healthcare UK Ltd. Buckinghamshire. UK) which had been preloaded with hNOP receptor membranes (PerkinElmer Life Sciences. Inc. Boston, Mass. USA). After incubation for 60 minutes at RT and centrifugation for 20 minutes at 500 rpm the signal rate was measured by means of a 1450 Microbeta Trilux ß-counter (PerkinElmer Life Sciences/Wallac. Turku. Finland). Half-maximal inhibitory concentration (IC50) values reflecting 50% displacement of [^3H]nociceptin-specific receptor binding were calculated by nonlinear regression analysis and Ki values were calculated by using the Cheng-Prusoff equation. (Cheng and Prusoff. 1973).

The results in this text go back to patent US10738015B2, “1,3-diaza-spiro-[3.4]-octane derivatives” (priority 2017, dated 2020).

pKi: −log10 of the molar value. Like-named read-outs stand apart in the source and are kept apart here.

The pKi is the negative decadic logarithm of the Ki, by convention in mol/L. As a reminder, the Ki is the dissociation constant of the complex between target and ligand, obtained from inhibition or displacement. Usually inhibition stands for the relative decrease from the control value, in per cent.

Sequence of human mu-opioid peptide (hMOP) receptor (P35372 whole entry): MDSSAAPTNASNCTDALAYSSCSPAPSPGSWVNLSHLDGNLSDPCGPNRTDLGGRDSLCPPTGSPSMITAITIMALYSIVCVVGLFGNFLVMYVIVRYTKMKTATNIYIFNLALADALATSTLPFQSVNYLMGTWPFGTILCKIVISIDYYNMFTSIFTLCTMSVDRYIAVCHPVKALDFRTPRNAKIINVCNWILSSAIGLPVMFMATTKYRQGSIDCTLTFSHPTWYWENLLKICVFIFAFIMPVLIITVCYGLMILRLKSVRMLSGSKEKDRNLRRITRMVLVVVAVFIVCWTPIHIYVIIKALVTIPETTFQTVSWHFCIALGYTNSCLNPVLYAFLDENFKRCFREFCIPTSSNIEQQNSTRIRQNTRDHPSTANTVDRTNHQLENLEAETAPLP

As to `COC(C)(C)CN1C[C@]2(C[C@](c3cccc(F)c3)(N(C)C)C2)N(CC2CC2)C1=O` [SC-37, Cis-5-(cyclopropylmethyl)-2-(dimethylamino)-2-(3-fluorophenyl)-7-(2-methoxy-2-methylpropyl)-5,7-diazaspiro[3.4]octan-6-one], in assay [1], the negative logarithm of the Ki (pKi) was 7.36. For the same compound, the Ki in assay [2] was 37 nM. For `CN(C)[C@]1(c2cccc(F)c2)C[C@@]2(CN(CCS(C)(=O)=O)C(=O)N2CC2CC2)C1` [SC-31, cis-5-(cyclopropylmethyl)-2-(dimethylamino)-2-(3-fluorophenyl)-7-(2-(methylsulfonyl)ethyl)-5,7-diazaspiro[3.4]octan-6-one], in assay [1], the Ki was determined as 150 nM. The same compound had a pKi in assay [2] of 7.82.

On to `COc1nc(C#N)ncc1N1C[C@]2(C[C@@](c3ccccc3)(N(C)C)C2)N(CC2CCC2)C1=O` [SC-11, trans-5-(5-(cyclobutylmethyl)-2-(dimethylamino)-6-oxo-2-phenyl-5,7-diazaspiro[3.4]octan-7-yl)-4-methoxypyrimidine-2-carbonitrile], for which the Ki came to 3 nM in assay [1] and 99 nM in assay [2]. As for `CN(C)[C@]1(c2ccccc2)C[C@@]2(CN(CC(N)=O)C(=O)N2)C1` [SC-1, Cis-2-(2-(dimethylamino)-6-oxo-2-phenyl-5,7-diazaspiro[3.4]octan-7-yl)acetamide], the inhibition at 1 µM in assay [1] is 19%. In addition, the inhibition constant (Ki) in assay [2] came to 200 nM.

As for `Cc1cc(C(F)F)ncc1N1C[C@]2(C[C@](c3cccc(F)c3)(N(C)C)C2)NC1=O` [SC-22, cis-7-(6-(difluoromethyl)-4-methylpyridin-3-yl)-2-(dimethylamino)-2-(3-fluorophenyl)-5,7-diazaspiro[3.4]octan-6-one], the inhibition at 1 µM in assay [1] came to 11%. The inhibition constant Ki in assay [2] came out at 380 nM. As to `COc1nc(C#N)ncc1N1C[C@]2(C[C@@](c3ccccc3)(N(C)C)C2)NC1=O` [SC-5, trans-5-(2-(dimethylamino)-6-oxo-2-phenyl-5,7-diazaspiro[3.4]octan-7-yl)-4-methoxypyrimidine-2-carbonitrile], the Ki in assay [1] worked out at 99 nM; in assay [2], 800 nM.

For `CN(C)[C@]1(c2cccc(F)c2)C[C@@]2(CN(Cc3ccc(N4CCOCC4)cc3)C(=O)N2)C1` [SC-41, cis-2-(dimethylamino)-2-(3-fluorophenyl)-7-(4-morpholinobenzyl)-5,7-diazaspiro[3.4]octan-6-one], in assay [1], the Ki amounted to 465 nM. This compound also showed a pKi in assay [2] of 7.68. For `CN(C)[C@]1(c2cccc(F)c2)C[C@@]2(CN(CCC3COC3)C(=O)N2CC2CC2)C1` [SC-47, Cis-5-(cyclopropylmethyl)-2-(dimethylamino)-2-(3-fluorophenyl)-7-[2-(oxetan-3-yl)ethyl]-5,7-diazaspiro[3.4]octan-6-one], the Ki stood at 44 nM in assay [1] and 9 nM in assay [2]. `CN(C)[C@]1(c2cccc(F)c2)C[C@@]2(CN(CCC#N)C(=O)N2CC2CC2)C1` [SC-44, cis-3-(5-(cyclopropylmethyl)-2-(dimethylamino)-2-(3-fluorophenyl)-6-oxo-5,7-diazaspiro[3.4]octan-7-yl)propanenitrile] showed a pKi in assay [1] of 6.96. In addition, the Ki in assay [2] is 15 nM. `CN(C)[C@]1(c2ccccc2)C[C@]2(CN(CC(N)=O)C(=O)N2CC2CCC2)C1` [SC-9, Trans-2-(5-(cyclobutylmethyl)-2-(dimethylamino)-6-oxo-2-phenyl-5,7-diazaspiro[3.4]octan-7-yl)acetamide] showed a negative logarithm of the Ki (pKi) in assay [1] of 7.32. Moreover, the Ki in assay [2] worked out at 380 nM. `COc1nc(C#N)ncc1N1C[C@]2(C[C@](c3ccccc3)(N(C)C)C2)NC1=O` [SC-3, Cis-5-(2-(dimethylamino)-6-oxo-2-phenyl-5,7-diazaspiro[3.4]octan-7-yl)-4-methoxypyrimidine-2-carbonitrile]: the pKi in assay [2] was 6.43. For `CN(C)[C@]1(c2ccccc2)C[C@@]2(CN(c3cnc(-c4ccncc4)nc3)C(=O)N2CC2CC2)C1` [SC-43, Cis-5-(cyclopropylmethyl)-2-(dimethylamino)-2-phenyl-7-(2-pyridin-4-ylpyrimidin-5-yl)-5,7-diazaspiro[3.4]octan-6-one], the figures for the Ki in assay [1] and in assay [2] were 83 nM and 31 nM, respectively. Turning to `Cc1cc(C(C)(C)O)ncc1N1C[C@]2(C[C@](c3ccccc3)(N(C)C)C2)NC1=O` [SC-20, Cis-2-(dimethylamino)-7-(6-(2-hydroxypropan-2-yl)-4-methylpyridin-3-yl)-2-phenyl-5,7-diazaspiro[3.4]octan-6-one], the Ki in assay [1] came out at 5840 nM; in assay [2] it was 1160 nM. As for `CN(C)[C@]1(c2cccc(F)c2)C[C@@]2(CN(c3ccc(OC(F)(F)F)cn3)C(=O)N2CC2(O)CCC2)C1` [SC-27, Cis-2-(dimethylamino)-2-(3-fluorophenyl)-5-((1-hydroxycyclobutyl)methyl)-7-(5-(trifluoromethoxy)pyridin-2-yl)-5,7-diazaspiro[3.4]octan-6-one], the Ki was 335 nM in assay [1] and 12 nM in assay [2].

On to `CN(C)[C@]1(c2cccc(F)c2)C[C@@]2(CN(c3ccc(OC(F)(F)F)cn3)C(=O)N2CC2(F)CC2)C1` [SC-26, Cis-2-(dimethylamino)-5-((1-fluorocyclopropyl)methyl)-2-(3-fluorophenyl)-7-(5-(trifluoromethoxy)pyridin-2-yl)-5,7-diazaspiro[3.4]octan-6-one], for which the Ki was 1020 nM in assay [1] and 91 nM in assay [2]. For the compound `CN(C)[C@]1(c2ccccc2)C[C@]2(CN(CC(=O)N3CCS(=O)(=O)CC3)C(=O)N2)C1` [SC-4, trans-2-(dimethylamino)-7-(2-(1,1-dioxidothiomorpholino)-2-oxoethyl)-2-phenyl-5,7-diazaspiro[3.4]octan-6-one], the inhibition constant Ki in assay [1] amounted to 15 nM; in assay [2], 860 nM.

With `Cc1nc(N2CCOCC2)ncc1N1C[C@]2(C[C@](c3ccccc3)(N(C)C)C2)NC1=O` [SC-12, cis-2-(dimethylamino)-7-(4-methyl-2-morpholinopyrimidin-5-yl)-2-phenyl-5,7-diazaspiro[3.4]octan-6-one], the inhibition at 1 µM in assay [1] was determined as 13%. Moreover, the inhibitory constant (Ki) in assay [2] is 630 nM. As to `CN(C)[C@]1(c2ccccc2)C[C@@]2(CN(CC(=O)N3CCS(=O)(=O)CC3)C(=O)N2CC2CCC2)C1` [SC-6, Cis-5-(cyclobutylmethyl)-2-(dimethylamino)-7-(2-(1,1-dioxidothiomorpholino)-2-oxoethyl)-2-phenyl-5,7-diazaspiro[3.4]octan-6-one], the pKi in assay [2] is 9.00. For `Cc1cc(C#N)cnc1N1C[C@]2(C[C@](c3cccc(F)c3)(N(C)C)C2)N(CC2CC2)C1=O` [SC-16, Cis-6-(5-(cyclopropylmethyl)-2-(dimethylamino)-2-(3-fluorophenyl)-6-oxo-5,7-diazaspiro[3.4]octan-7-yl)-5-methylnicotinonitrile], the Ki in assay [1] was found to be 1320 nM; in assay [2] it was 31 nM.

In the case of `CN(C)[C@]1(c2ccccc2)C[C@]2(CN(CC(N)=O)C(=O)N2CC2CCC2)C1` [SC-8, cis-2-(5-(cyclobutylmethyl)-2-(dimethylamino)-6-oxo-2-phenyl-5,7-diazaspiro[3.4]octan-7-yl)acetamide], the Ki in assay [1] is 100 nM; in assay [2] it was 3 nM.

As for `Cc1cc(C#N)ncc1N1C[C@]2(C[C@](c3cccc(F)c3)(N(C)C)C2)N(CC2CC2)C1=O` [SC-15, cis-5-(5-(cyclopropylmethyl)-2-(dimethylamino)-2-(3-fluorophenyl)-6-oxo-5,7-diazaspiro[3.4]octan-7-yl)-4-methylpicolinonitrile], the inhibition constant Ki in assay [1] came to 1330 nM. For the same compound, the negative logarithm of the Ki (pKi) in assay [2] was 7.89.
